Measurements: publication PMC3486884 (PLoS Pathogens, 2012)
Where two headings read alike, the source gives them in different places.

How the values were obtained:
HRV1A [1] = conditions: n=2
HRV2 [2] = conditions: n=2
HRV14 [3] = conditions: n=2
HRV16 [4] = conditions: n=2
CVA21 [5] = conditions: n=2
CVB3 = conditions: n=2
CVB4 [6] = conditions: n=2
HRV1A [7] = assay: microbe, parasite or virus in culture; conditions: Human rhinovirus sp.; for IC50: HeLa, read-out: IC50 (HRV1A); for activity at 0.03 µM / activity at 0.1 µM / activity at 0.31 µM / activity at 0.93 µM / activity at 2.78 µM / activity at 8.33 µM / activity at 25 µM: M-HeLa, 7 h; for activity at 0.03 µM: read-out: HRV1A infection (dsRNA), 0.03 µM; for activity at 0.1 µM: read-out: HRV1A infection (dsRNA), 0.10 µM; for activity at 0.31 µM: read-out: HRV1A infection (dsRNA), 0.31 µM; for activity at 0.93 µM: read-out: HRV1A infection (dsRNA), 0.93 µM; for activity at 2.78 µM: read-out: HRV1A infection (dsRNA), 2.78 µM; for activity at 8.33 µM: read-out: HRV1A infection (dsRNA), 8.33 µM; for activity at 25 µM: read-out: HRV1A infection (dsRNA), 25.00 µM
HRV2 [8] = assay: microbe, parasite or virus in culture; conditions: Human rhinovirus sp., HRV2, HeLa, read-out: IC50 (HRV2)
HRV14 [9] = assay: microbe, parasite or virus in culture; conditions: Human rhinovirus sp., HRV14, HeLa, read-out: IC50 (HRV14)
HRV16 [10] = assay: microbe, parasite or virus in culture; conditions: Human rhinovirus sp., HRV16, HeLa, read-out: IC50 (HRV16)
CVA21 [11] = assay: microbe, parasite or virus in culture; conditions: Coxsackievirus, CVA21, HeLa, read-out: IC50 (CVA21)
CVB4 [12] = assay: microbe, parasite or virus in culture; conditions: Enterovirus B, CVB4, HeLa, read-out: IC50 (CVB4)
[13] = test system: influenza virus (strain A/Puerto Rico/8/34/H1N1 depicted PR8); assay: microbe, parasite or virus in culture; conditions: unidentified influenza virus, A549, read-out: IC50 (PR8)
[14] = nitazoxanide; cited from earlier work

For O=C(Nc1ccc([N+](=O)[O-])cc1Cl)c1ccccc1O [TVB-1332], the relative infection (HRV1A [1]; 0.1 µM) was 0.99, the relative infection (HRV1A [1]; 0.3 µM) was 1.01 and the relative infection (HRV1A [1]; 0.9 µM) was 0.97. The relative infection (HRV1A [1]; 2.8 µM) was 0.61, the relative infection (HRV1A [1]; 8.3 µM) was 0.04 and the relative infection (HRV1A [1]; 25.0 µM) was 0.02. For the same molecule, the relative infection (HRV2 [2]; HRV2, 0.1 µM, normalized to DMSO control (1), Figure S7A) was 0.94, the relative infection (HRV2 [2]; HRV2, 0.3 µM, normalized to DMSO control (1), Figure S7A) was 0.97 and the relative infection (HRV2 [2]; HRV2, 0.9 µM, normalized to DMSO control (1), Figure S7A) was 0.95. For the same molecule, the relative infection (HRV2 [2]; HRV2, 2.8 µM, normalized to DMSO control (1), Figure S7A) was 0.38, the relative infection (HRV2 [2]; HRV2, 8.3 µM, normalized to DMSO control (1), Figure S7A) was 0.01 and the relative infection (HRV2 [2]; HRV2, 25.0 µM, normalized to DMSO control (1), Figure S7A) was 0.01. It also gave a relative infection (HRV14 [3]; HRV14, 0.1 µM, normalized to DMSO control (1), Figure S7A) of 0.91, a relative infection (HRV14 [3]; HRV14, 0.3 µM, normalized to DMSO control (1), Figure S7A) of 0.96 and a relative infection (HRV14 [3]; HRV14, 0.9 µM, normalized to DMSO control (1), Figure S7A) of 0.82. For the same molecule, the relative infection (HRV14 [3]; HRV14, 2.8 µM, normalized to DMSO control (1), Figure S7A) was 0.47, the relative infection (HRV14 [3]; HRV14, 8.3 µM, normalized to DMSO control (1), Figure S7A) was 0.09 and the relative infection (HRV14 [3]; HRV14, 25.0 µM, normalized to DMSO control (1), Figure S7A) was 0.05. The relative infection (HRV16 [4]; HRV16, 0.1 µM, normalized to DMSO control (1), Figure S7A) was 0.98, the relative infection (HRV16 [4]; HRV16, 0.3 µM, normalized to DMSO control (1), Figure S7A) was 0.95 and the relative infection (HRV16 [4]; HRV16, 0.9 µM, normalized to DMSO control (1), Figure S7A) was 0.94. It also gave a relative infection (HRV16 [4]; HRV16, 2.8 µM, normalized to DMSO control (1), Figure S7A) of 0.66, a relative infection (HRV16 [4]; HRV16, 8.3 µM, normalized to DMSO control (1), Figure S7A) of 0.14 and a relative infection (HRV16 [4]; HRV16, 25.0 µM, normalized to DMSO control (1), Figure S7A) of 0.07. It also gave a relative infection (CVA21 [5]; CVA21, 0.1 µM, normalized to DMSO control (1), Figure S7A) of 0.91, a relative infection (CVA21 [5]; CVA21, 0.3 µM, normalized to DMSO control (1), Figure S7A) of 0.95 and a relative infection (CVA21 [5]; CVA21, 0.9 µM, normalized to DMSO control (1), Figure S7A) of 0.93. For the same molecule, the relative infection (CVA21 [5]; CVA21, 2.8 µM, normalized to DMSO control (1), Figure S7A) was 1.02, the relative infection (CVA21 [5]; CVA21, 8.3 µM, normalized to DMSO control (1), Figure S7A) was 0.81 and the relative infection (CVA21 [5]; CVA21, 25.0 µM, normalized to DMSO control (1), Figure S7A) was 0.20. For the same molecule, the relative infection (CVB3; 0.1 µM) was 1.01, the relative infection (CVB3; 2.8 µM) was 1.08 and the relative infection (CVB3; CVB3, 0.3 µM, normalized to DMSO control (1), Figure S7A) was 1.11. The relative infection (CVB3; CVB3, 0.9 µM, normalized to DMSO control (1), Figure S7A) was 1.07, the relative infection (CVB3; CVB3, 8.3 µM, normalized to DMSO control (1), Figure S7A) was 1.05 and the relative infection (CVB3; CVB3, 25.0 µM, normalized to DMSO control (1), Figure S7A) was 1.15. It also gave a relative infection (CVB4 [6]; CVB4, 0.1 µM, normalized to DMSO control (1), Figure S7A) of 1.10, a relative infection (CVB4 [6]; CVB4, 0.3 µM, normalized to DMSO control (1), Figure S7A) of 1.16 and a relative infection (CVB4 [6]; CVB4, 0.9 µM, normalized to DMSO control (1), Figure S7A) of 1.25. For the same molecule, the relative infection (CVB4 [6]; CVB4, 2.8 µM, normalized to DMSO control (1), Figure S7A) was 0.86, the relative infection (CVB4 [6]; CVB4, 8.3 µM, normalized to DMSO control (1), Figure S7A) was 0.34 and the relative infection (CVB4 [6]; CVB4, 25.0 µM, normalized to DMSO control (1), Figure S7A) was 0.33. For the same molecule, the IC50 (HRV1A [7]) was 3.19 µM, the activity at 0.03 µM (HRV1A [7]) was 108% and the activity at 0.1 µM (HRV1A [7]) was 98%. It also gave an activity at 0.31 µM (HRV1A [7]) of 96%, an activity at 0.93 µM (HRV1A [7]) of 88% and an activity at 2.78 µM (HRV1A [7]) of 44%. The activity at 8.33 µM (HRV1A [7]) was 5%, the activity at 25 µM (HRV1A [7]) was 4% and the IC50 (HRV2 [8]) was 2.36 µM. It also gave an IC50 (HRV14 [9]) of 2.47 µM, an IC50 (HRV16 [10]) of 3.74 µM and an IC50 (CVA21 [11]) of 14.7 µM. It also gave an IC50 (CVB4 [12]) of 8.01 µM and an IC50 [13] of ~2.7 µM.

With O=C(Nc1ccc([N+](=O)[O-])cc1Cl)c1cc(Cl)cc(Cl)c1O [TVB-1326] the relative infection (HRV1A [1]; 0.1 µM) was 0.93, the relative infection (HRV1A [1]; 0.3 µM) was 0.91 and the relative infection (HRV1A [1]; 0.9 µM) was 0.84. The relative infection (HRV1A [1]; 2.8 µM) was 0.62, the relative infection (HRV1A [1]; 8.3 µM) was 0.17 and the relative infection (HRV1A [1]; 25.0 µM) was 0.02. For the same molecule, the relative infection (HRV2 [2]; 0.1 µM) was 1.05, the relative infection (HRV2 [2]; 0.3 µM) was 0.96 and the relative infection (HRV2 [2]; 0.9 µM) was 0.86. The relative infection (HRV2 [2]; 2.8 µM) was 0.72, the relative infection (HRV2 [2]; 8.3 µM) was 0.15 and the relative infection (HRV2 [2]; 25.0 µM) was 0.01. It also gave a relative infection (HRV14 [3]; 0.1 µM) of 0.87, a relative infection (HRV14 [3]; 0.3 µM) of 0.90 and a relative infection (HRV14 [3]; 0.9 µM) of 0.88. The relative infection (HRV14 [3]; 2.8 µM) was 0.81, the relative infection (HRV14 [3]; 8.3 µM) was 0.46 and the relative infection (HRV14 [3]; 25.0 µM) was 0.07. The relative infection (HRV16 [4]; 0.1 µM) was 0.99, the relative infection (HRV16 [4]; 0.3 µM) was 1.00 and the relative infection (HRV16 [4]; 0.9 µM) was 0.96. It also gave a relative infection (HRV16 [4]; 2.8 µM) of 0.96, a relative infection (HRV16 [4]; 8.3 µM) of 0.68 and a relative infection (HRV16 [4]; 25.0 µM) of 0.10. For the same molecule, the relative infection (CVA21 [5]; 0.1 µM) was 0.87, the relative infection (CVA21 [5]; 0.3 µM) was 0.98 and the relative infection (CVA21 [5]; 0.9 µM) was 1.00. For the same molecule, the relative infection (CVA21 [5]; 2.8 µM) was 0.99, the relative infection (CVA21 [5]; 8.3 µM) was 1.10 and the relative infection (CVA21 [5]; 25.0 µM) was 0.59. The relative infection (CVB3; 0.1 µM) was 1.05, the relative infection (CVB3; 0.3 µM) was 1.06 and the relative infection (CVB3; 0.9 µM) was 1.11. It also gave a relative infection (CVB3; 2.8 µM) of 1.06, a relative infection (CVB3; 8.3 µM) of 1.00 and a relative infection (CVB3; 25.0 µM) of 1.27. For the same molecule, the relative infection (CVB4 [6]; 0.1 µM) was 1.13, the relative infection (CVB4 [6]; 0.3 µM) was 1.22 and the relative infection (CVB4 [6]; 0.9 µM) was 1.20. It also gave a relative infection (CVB4 [6]; 2.8 µM) of 1.06, a relative infection (CVB4 [6]; 8.3 µM) of 0.71 and a relative infection (CVB4 [6]; 25.0 µM) of 0.29. The IC50 (HRV1A [7]) was 3.36 µM, the activity at 0.03 µM (HRV1A [7]) was 93% and the activity at 0.1 µM (HRV1A [7]) was 85%. It also gave an activity at 0.31 µM (HRV1A [7]) of 88%, an activity at 0.93 µM (HRV1A [7]) of 87% and an activity at 2.78 µM (HRV1A [7]) of 66%. The activity at 8.33 µM (HRV1A [7]) was 17%, the activity at 25 µM (HRV1A [7]) was 4% and the IC50 (HRV2 [8]) was 3.98 µM. It also gave an IC50 (HRV14 [9]) of 6.87 µM, an IC50 (HRV16 [10]) of 11.1 µM and an IC50 (CVA21 [11]) of ~25.8 µM. For the same molecule, the IC50 (CVB4 [12]) was 15 µM and the IC50 [13] was 10.2 µM.

For CC(=O)Oc1ccccc1C(=O)Nc1ncc([N+](=O)[O-])s1 [Nitazoxanide, nitazoxanide], the pKa [14] is listed as 5.8.
